# Measurements from patent publication US20230094922A1, “METHODS OF THERAPEUTIC PROGNOSTICATION” (GENETIKAPLUS LTD., priority 2020, published 2023).
# Tested on: iPSC-derived cortical neurons
# Assay type: cell-based
# Details: responders vs non-responders, 10 μM Bupropion
smiles,measurement,setting,value
"CC(NC(C)(C)C)C(=O)c1cccc(Cl)c1 (stereo not drawn) [Bupropion, 3-Chloro-N-tert-butyl-β-keto-α-methylphenethylamin]",logFC LGI1 expression,p<0.01,0.9793
same,logFC LRRC8B expression,p<0.01,0.4223
same,logFC MCM4 expression,p<0.01,0.5295
same,logFC MCUR1 expression,p<0.01,0.2421
same,logFC MDN1 expression,p<0.01,0.4167
same,logFC MEIOC expression,p<0.01,0.7172
same,logFC MGA expression,p<0.01,0.3064
same,logFC MGME1 expression,p<0.01,0.4368
same,logFC MZT1 expression,p<0.01,0.4887
same,logFC NFKBID expression,p<0.01,0.4452
same,logFC NOS2 expression,p<0.01,1.462
same,logFC NPY2R expression,p<0.01,1.653
same,logFC OSBPL11 expression,p<0.01,0.3394
same,logFC PAWR expression,p<0.01,0.4771
same,logFC PCGF5 expression,p<0.01,0.6056
same,logFC PHF6 expression,p<0.01,0.4686
same,logFC POU5F1B expression,p<0.01,0.9729
same,logFC PPAT expression,p<0.01,0.4669
same,logFC PRKDC expression,p<0.01,0.3963
same,logFC PTPN13 expression,p<0.01,0.5645
same,logFC RNGTT expression,p<0.01,0.3114
same,logFC S100A13 expression,p<0.01,0.7404
same,logFC SELENOI expression,p<0.01,0.336
same,logFC SFRP4 expression,p<0.01,1.737
same,logFC SIGLEC10 expression,p<0.01,0.8067
same,logFC SIKE1 expression,p<0.01,0.3013
same,logFC SIM1 expression,p<0.01,2.052
same,logFC SLC7A11 expression,p<0.01,0.6075
same,logFC SLC25A13 expression,p<0.01,0.3285
same,logFC SLC25A17 expression,p<0.01,0.3611
same,logFC SMG1 expression,p<0.01,0.2796
same,logFC SNRNP48 expression,p<0.01,0.4371
same,logFC SPIN4 expression,p<0.01,0.4838
same,logFC STK38L expression,p<0.01,0.387
same,logFC SYCP2L expression,p<0.01,0.5973
same,logFC TFAM expression,p<0.01,0.4583
same,logFC TIGAR expression,p<0.01,0.4965
same,logFC TNFRSF13C expression,p<0.01,0.5218
same,logFC TSGA10IP expression,p<0.01,0.8595
same,logFC TXNRD1 expression,p<0.01,0.3112
same,logFC USP37 expression,p<0.01,0.2938
same,logFC WNT8B expression,p<0.01,1.79
same,logFC WNT10B expression,p<0.01,1.077
same,logFC WWP1 expression,p<0.01,0.3073
same,logFC ZBTB24 expression,p<0.01,0.4021
same,logFC ZC3H13 expression,p<0.01,0.2827
same,logFC ZNF347 expression,p<0.01,0.3648
same,logFC ZWILCH expression,p<0.01,0.4164
same,logFC ACKR1,PValue NS,−1.506
same,logFC ACVR2A,PValue NS,−0.6074
same,logFC ADGRA1,PValue NS,−1.373
same,logFC ADGRG1,PValue NS,−0.7037
same,logFC AFAP1,PValue NS,−0.7585
same,logFC ANKRD34A,PValue NS,−1.243
same,logFC APBA1,PValue NS,−1.797
same,logFC APC2,PValue NS,−1.57
same,logFC APOL6,PValue NS,−1.252
same,logFC ARHGAP22,PValue NS,−2.023
same,logFC ASIC2,PValue NS,−1.907
same,logFC ATL1,PValue NS,−1.284
same,logFC ATP8A1,PValue NS,−1.064
same,logFC BCL11A,PValue NS,−1.755
same,logFC BTBD8,PValue NS,−0.8605
same,logFC C1QL1,PValue NS,−1.952
same,logFC C11orf87,PValue NS,−2.65
same,logFC C11orf95,PValue NS,−0.652
same,logFC C14orf132,PValue NS,−1.198
same,logFC CACNA1E,PValue NS,−1.888
same,logFC CALY,PValue NS,−1.348
same,logFC CARMIL3,PValue NS,−1.181
same,logFC CBFA2T3,PValue NS,−1.14
same,logFC CDKN2D,PValue NS,−1.375
same,logFC CEND1,PValue NS,−1.295
same,logFC CHD5,PValue NS,−1.435
same,logFC CHRNB4,PValue NS,−1.488
same,logFC CHRNG,PValue NS,−1.545
same,logFC CNR1,PValue NS,−1.187
same,logFC CNTN2,PValue NS,−2.494
same,logFC CRYGD,PValue NS,−3.453
same,logFC CTIF,PValue NS,−0.9638
same,logFC DACT3,PValue NS,−0.903
same,logFC DCLK1,PValue NS,−1.159
same,logFC DISP3,PValue NS,−1.132
same,logFC DLGAP3,PValue NS,−1.159
same,logFC DLL4,PValue NS,−2.038
same,logFC DNAJC6,PValue NS,−1.057
same,logFC DNAJC12,PValue NS,−0.9874
same,logFC DNM3,PValue NS,−1.295
same,logFC DOC2B,PValue NS,−2.034
same,logFC DOK4,PValue NS,−0.8299
same,logFC DPF3,PValue NS,−1.335
same,logFC DPP6,PValue NS,−1.175
same,logFC DUSP8,PValue NS,−1.12
same,logFC DUSP26,PValue NS,−1.67
same,logFC ELAVL2,PValue NS,−0.9184
same,logFC ELAVL3,PValue NS,−1.463
same,logFC ELMOD1,PValue NS,−1.395
same,logFC EPHB2,PValue NS,−1.009
same,logFC ERC2,PValue NS,−0.9757
same,logFC ESRRB,PValue NS,−1.635
same,logFC ESRRG,PValue NS,−1.003
same,logFC FAM78B,PValue NS,−1.309
same,logFC FAM131C,PValue NS,−1.177
same,logFC FAM155A,PValue NS,−0.6581
same,logFC FBLL1,PValue NS,−1.499
same,logFC FBXL16,PValue NS,−0.9816
same,logFC FLRT2,PValue NS,−0.9821
same,logFC FRRS1L,PValue NS,−1.313
same,logFC GALNT15,PValue NS,−1.592
same,logFC GDAP1L1,PValue NS,−1.2
same,logFC GDI1,PValue NS,−0.5928
same,logFC GNAT3,PValue NS,−1.874
same,logFC GNAZ,PValue NS,−0.8379
same,logFC GNG2,PValue NS,−1.148
same,logFC GPR12,PValue NS,−2.094
same,logFC GPR83,PValue NS,−1.576
same,logFC GPRASP1,PValue NS,−0.7562
same,logFC GPRIN3,PValue NS,−1.516
same,logFC GRIN2B,PValue NS,−2.921
same,logFC GRIN3A,PValue NS,−2.57
same,logFC GRM6,PValue NS,−1.37
same,logFC GRM7,PValue NS,−1.699
same,logFC GSE1,PValue NS,−0.6973
same,logFC GSTM3,PValue NS,−1.177
same,logFC HIVEP3,PValue NS,−1.261
